Data as given in patent publication US9371330B2, “Substituted pyrazino[1,2-a]pyrimidines useful as CBP/catenin antagonists for enhancing asymmetric division of somatic stem cells” (University of Southern California, priority 2011, dated 2016).
Entries after “also recorded” stand apart in the source; their conditions may differ.

How the values were obtained:
[1] = tested on: mitotic cells in the ventricular zone (VZ); assay: symmetric versus asymmetric divisions (Par3 distribution) in the ventricular zone of mouse embryos; type: in vivo
Text: Taking advantage of the ready uptake and penetration through the placental barrier of applicant's small molecule Wnt modulators, applicant designed a series of experiments to investigate symmetric versus asymmetric divisions in the ventricular zone (VZ) of the brain during mouse embryonic development. Timed pregnant mice were topically treated for various time periods (1-3 days) with DMSO (vehicle control), the CBP/catenin antagonist ICG-001 or the p300/catenin antagonist IQ-1. Using a previously described protocol (56), the localization of […] (Par3) and DNA was examined in mitotic cells in the VZ. Par3 distributes symmetrically in cells that divide symmetrically and asymmetrically in cells that divide asymmetrically, whereas the DNA distributes symmetrically between the 2 cells. Using fluorescence microscopy, the percentage of mitotic cells dividing symmetrically or asymmetrically could be quantified. […] Antagonizing the CBP/catenin interaction with ICG-001 had no apparent effect yielding similarly, approximately 21% asymmetric divisions. […] Importantly, this decrease in asymmetric divisions upon treatment with IQ-1 could be rescued back essentially to control levels (i.e. ˜21%) by treatment with a 2-fold excess of ICG-001. Even further divergence in symmetric versus asymmetric divisions could be seen upon prolonged treatments. For example, treatment with IQ-1 (i.e., antagonizing p300/catenin interaction leading to increased usage of CBP) for 3 days (E13.5-16.5) decreased asymmetric divisions compared to control from 31% to 7%. […] This reporter mouse expresses EGFP, driven by the Tis21 promoter, in cells that have undergone neurogenic differentiative divisions.
For example, Bultje et al (Bultje R Neuron 63, 189-202, 2009) describe an assay to measure asymmetric distributions in the ventricular zone (vz) to evaluate asymmetric divisions during neurogenesis. Essentially this involves treating the animal (either adult or in utero) for a set period of time with compounds (either p.o., s.c., i.v. or topically) with compounds and then sacrificing the animal and examining the Par3 distribution (e.g., via immunohistochemistry) in mitotic cells vs. DNA distribution (e.g., using DAPI staining) Par3 distributes equally among the two daughter cells during symmetric division and unequally (essentially all in one daughter cell) during asymmetric differentiation.

[2] = tested on: murine embryonic stem cells (mESCs); assay: long-term culture of murine embryonic stem cells; type: cell-based, mouse; settings: Wnt-dependent
Text: (§1) IQ-1. In addition to ICG-001, a screen of a large chemical library for maintenance of pluripotency in mES cells led to the identification of another compound, termed IQ-1 (FIG. 2b). […] I-Q-1 diminishes the interaction between p300 and beta-catenin thereby increasing the CBP/beta-catenin interaction (24).

[3] = tested on: PR72/130 subunit of the serine/threonine phosphatase PP2A; assay: binding to PP2A subunit
Text: as §1

skin injury = skin injury repair in normal and hair-less mice; type: in vivo, mouse; settings: 500 μM in vaseline, once a day for eight days
Protocol: The ability of CBP/catenin (e.g., CBP/β-catenin) antagonist to accelerate injured skin repair in normal mice models (having full hair growth and normal fur) and hair-less mice models was tested. In brief, on day 0, the animals were subjected to skin injury in two spots on the back, hind end of each animal. Each skin injury spot was treated with 500 μM of either Vaseline (petrolatum) (vehicle) or Laura-8 in vaseline once a day for eight days.

hair-less mouse model = assay: hair growth in hair-less mouse model; type: in vivo; settings: vs petroleum jelly
Protocol: The ability of CBP/β-catenin antagonist to stimulate hair growth in a hair-less mouse model was tested. In brief, the animals were treated with either petroleum jelly or Laura-8 for 16 days. In addition, skin samples from each animal were taken and examined for hair-follicle formulation.

normal stem cell niche = assay: aging mice, long term topical administration; type: in vivo, mouse; settings: 12 months (6 to 18 months of age)
Text: Left mouse is control, whereas right mouse received CBP/catenin (e.g., CBP/β-catenin) antagonists (topical Laura-8 as disclosed herein) for 12 months (from 6 months of age to 18 months of age).

elastin = assay: ex vivo human skin assay, qRT-PCR of elastin; type: cell-based; settings: 24 hrs; 5 uM ICG-001, 5 uM methylated ICG-001, 1 ug/ml RA
Protocol: (§2) Methods. Ex Vivo human skin assay culture conditions were based upon a paper by Varani J et al Experimental and Molecular Pathology, 2004.
(§3) Briefly, human skin (surgical waste from plastic surgery procedures) was obtained and the subcutaneous layer of fat was trimmed manually with a scalpel. The skin was then cut into small fragments about 2 mm square and placed in 6 well plates. 1 ml of keratinocyte culture medium (Gibco 10724-011) with 1% P/S (penstrep antibiotic) was added to each well. The epidermis, bathed in media was placed facing up. On the next day (overnight culture in the media above), the skin fragments were transferred to fresh wells that contained either 5 uM ICG-001, 5-uM methylated ICG-001 or 1 ug/ml of retinoic acid (RA). After 24 hrs, skin samples in culture were removed for RNA isolation and qRT-PCR analysis of genes of interest (e.g. elastin (a gene involved in skin appearance and pliability (e.g., wrinkling) and aquaporin 1, which is involved with hydration.

aquaporin 1 = assay: ex vivo human skin assay, qRT-PCR of aquaporin 1; type: cell-based; settings: 24 hrs; 5 uM ICG-001, 5 uM methylated ICG-001, 1 ug/ml RA
Protocol: as §2, §3

With `CC(=O)c1ccc(N=NC(C(N)=O)=C2NC(C)(C)Cc3ccccc32)cc1` [IQ-1] the “asymmetric divisions in the VZ” value ([1]; 3 days (E13.5-16.5)) was 7%, the “effect on number of asymmetric divisions” value ([1]; topical or oral administration to pregnant mice) was “decreases the number of asymmetric divisions” and the “asymmetric divisions in the VZ” value ([1]; topical to timed pregnant mice, 1 day (E13.5 to 14.5)) was “approximately 9%”. For the same compound, the maintenance of pluripotency [2] was “maintains the pluripotency” and the “binding to PR72/130” value [3] was “binds to the PR72/130 subunit of the serine/threonine phosphatase PP2A”.
With `CCCCCCCCCCCC(=O)Oc1ccc(C[C@H]2C(=O)N(Cc3cccc4ccccc34)C[C@@H]3N(C(=O)NCc4ccccc4)CCC(=O)N32)cc1` [Laura-8] the skin healing (skin injury) was “significantly accelerated skin healing process”, the hair growth (hair-less mouse model; 16 days) was “significant hair growth” and the “new hair-follicle formation (skin pathology)” value (hair-less mouse model) was “new hair-follicles were formed; also recorded: substantial new hair-follicle formation”. For the same compound, the “depletion of the normal stem cell niche” value (normal stem cell niche) was “does not deplete the normal stem cell niche”.
With `C[C@H]1C2N(C(=O)NCc3ccccc3)CCC(=O)N2[C@@H](Cc2ccc(O)cc2)C(=O)N1Cc1cccc2ccccc12` (stereo partly drawn) [Me-ICG-001, (6S,9S)—N-benzyl-6-(4-hydroxybenzyl)-9-methyl-8-(naphthalen-1-ylmethyl)-4,7-dioxooctahydro-1H-pyrazino[1,2-a]pyrimidine-1-carboxamide] the expression of elastin (elastin) was “larger increase” and the “expression of aquaporin 1” value (aquaporin 1) was “larger increase”.
